Data reported in EP1671644A2, “Pharmaceutical compositions containing Lysostaphin alone or in combination with an antibiiotic for the treatment of Staphylococcal infections” (priority 1997, dated 1999).
Marks after values point to notes of the source that are not given here.

Tests used:
S. aureus strain AG461 = assay: Time-kill experiment (Figure 1); format: cell-based, Staphylococcus aureus; settings: vancomycin 2 and 16 µg/ml (one and eight times MIC); three hours of contact
Procedure: The bactericidal activity of lysostaphin against S. aureus was also studied by means of time-kill experiments. In one experiment of this type, S. aureus strain AG461, a methicillin-resistant clinical isolate from Genoa, Italy, was inoculated into Mueller-Hinton broth (Difco) and grown at 37°C with gentle shaking until it reached approximately 10^8 viable cells per ml (CFU/ml), as estimated from the absorbance of the culture at 600 nm. The culture was then diluted with fresh broth to approximately 10^6 CFU/ml and 5 ml aliquots were placed in several different flasks for exposure to different concentrations of antibacterial agents. Incubation was continued, with gentle shaking, at 37°C, and samples were withdrawn at intervals for determination of viable cells. Serial 10-fold dilutions of the samples were made in sterile saline (0.9% NaCl in distilled water) and duplicate 0.1 ml aliquots of appropriate dilutions were plated on Tryptic Soy agar plates (Remel) using the agar inclusion method. (In this method, the aliquot to be plated is added to 2.5 ml of top agar, which is mixed and poured onto a plate. Top agar consisted of molten Tryptic Soy agar (Difco) diluted 2-fold with Difco Tryptic Soy broth to give a final agar concentration of 0.75%, w/v.) The plates were incubated for 24-48 hours at 36°C and the colonies were counted manually. […]

[1] = system: methicillin-resistant VISA strain of S. aureus; assay: Endocarditis in rabbits caused by a VISA strain; format: in vivo; settings: vancomycin 30 mg/kg twice daily
[2] = system: methicillin-resistant S. aureus strain (MRSA 27619); assay: Experimental aortic valve endocarditis in rabbits; format: in vivo; settings: vancomycin 30 mg/kg twice daily iv, three days
Procedure: Aortic valve endocarditis was established in New Zealand white rabbits weighing approximately 3 kg. Rabbits were anesthetized and the right carotid artery surgically exposed and cannulated with a polyethylene catheter which was advanced into the left ventricle of the heart. After at least 24 h, the rabbits were infected intravenously with 10^6-10^7 cells of a methicillin-resistant S. aureus strain (MRSA 27619). Twenty-four hours later, the animals were randomly assigned to different treatment groups: untreated control (9 rabbits); positive control, vancomycin 30 mg/kg twice daily (15); lysostaphin 5 mg/kg three times daily (11); lysostaphin 5 mg/kg once daily (10); lysostaphin 5 mg/kg once daily + vancomycin 30 mg/kg twice daily (11). Any rabbits whose infection was not confirmed by pre-treatment blood culture were eliminated.
All treatments were intravenous and were carried out for three days. The state of health of the rabbits was assessed at intervals. The rabbits were sacrificed 18 h after the last treatment. Aortic vegetations were removed and weighed and processed to determine the number of viable bacteria, expressed as log10CFU/gram. The limit of detection is 10^2 CFU/gram (log10CFU/gram=2.0). The mean titers of bacteria per gram were compared by one-way analysis of variance. The Student-Newman-Keuls test was used to adjust for multiple comparisons. […]

S. aureus Smith = assay: Acute infection model in mice (intraperitoneal infection); format: in vivo
Procedure: The efficacy of lysostaphin was compared to that of vancomycin in an acute infection model in mice. S. aureus Smith was cultured overnight, with moderate agitation, in Veal Infusion broth (Difco) and diluted in broth containing 5% hog gastric mucin (Difco). Male Swiss~Webster mice (Taconic Farms, Germantown, NY) weighing approximately 20 grams were infected intraperitoneally with 10^5-10^6 viable cells, approximately tenfold the inoculum that reproducibly killed all untreated animals within 48 h. There were six mice in each treatment group. Lysostaphin was administered intravenously (in 0.1 ml 5% dextrose for injection) or subcutaneously (in 0.2 ml), within 10 min of infection. Vancomycin was administered subcutaneously.

CN[C@H](CC(C)C)C(=O)N[C@H]1C(=O)N[C@@H](CC(N)=O)C(=O)N[C@H]2C(=O)N[C@H]3C(=O)N[C@H](C(=O)N[C@H](C(=O)O)c4cc(O)cc(O)c4-c4cc3ccc4O)[C@H](O)c3ccc(c(Cl)c3)Oc3cc2cc(c3O[C@@H]2O[C@H](CO)[C@@H](O)[C@H](O)[C@H]2O[C@H]2C[C@](C)(N)[C@H](O)[C@H](C)O2)Oc2ccc(cc2Cl)[C@H]1O [vancomycin]
bactericidal action (S. aureus strain AG461): very little killing of the bacteria | CFU/g vegetation ([1]; expressed as log10 of the mean): 6.95 CFU/g vegetation | sterile/total vegetations [1]: 0/13 | Mean log10CFU/gram of vegetation ± standard deviation [2]: 5.91 ± 1.67^a log10CFU/gram | Number of sterile vegetations /total animals treated [2]: 0/15 | % survival (S. aureus Smith; 0.63 mg/kg sc): 0% | % survival (S. aureus Smith; 1.25 mg/kg sc): 83% | % survival (S. aureus Smith; 2.5 mg/kg sc): 100% | % survival (S. aureus Smith; 5 mg/kg sc): 100% | % survival (S. aureus Smith; Table 4 experiment, 0.63 mg/kg, route not given): 0% | % survival (S. aureus Smith; Table 4 experiment, 1.25 mg/kg, route not given): 83% | % survival (S. aureus Smith; Table 4 experiment, 2.5 mg/kg, route not given): 100%
